pIC50: −log10 of the molar value.
Key:
Type in all cases: functional, cell-based
IEC-6 = assay: Cytotoxicity against rat IEC-6 cells assessed as inhibition of cell viability incubated for 72 hrs by CCK8 assay; conditions: IEC-6, 72 h
HL-60 = assay: Cytotoxicity against human HL-60 cells assessed as inhibition of cell viability incubated for 72 hrs by CCK8 assay; conditions: HL-60, 72 h
HepG2 = assay: Cytotoxicity against human HepG2 cells assessed as inhibition of cell viability incubated for 72 hrs by CCK8 assay; conditions: HepG2, 72 h
CTLL-2 = assay: Cytotoxicity against mouse CTLL-2 cells assessed as inhibition of cell viability incubated for 72 hrs by CCK8 assay; conditions: CTLL-2, 72 h
NRK-52E = assay: Cytotoxicity against rat NRK-52E cells assessed as inhibition of cell viability incubated for 72 hrs by CCK8 assay
RAW264.7 = assay: Cytotoxicity against mouse RAW264.7 cells assessed as inhibition of cell viability incubated for 72 hrs by CCK8 assay; conditions: RAW264.7, 72 h
THP-1 = assay: Cytotoxicity against human THP-1 cells assessed as inhibition of cell viability incubated for 72 hrs by CCK8 assay; conditions: THP-1, 72 h

C/C=C/C[C@@H](C)[C@@H](O)[C@H]1C(=O)N[C@@H](CC)C(=O)N(C)CC(=O)N(C)[C@@H](CC(C)C)C(=O)N[C@@H](C(C)C)C(=O)N(C)[C@@H](CC(C)C)C(=O)N[C@@H](C)C(=O)N[C@H](C)C(=O)N(C)[C@@H](CC(C)C)C(=O)N(C)[C@@H](CC(C)C)C(=O)N(C)[C@@H](C(C)C)C(=O)N1C [CYCLOSPORINE]
pIC50 (IEC-6): 5.04
pIC50 (HL-60): 5.09
pIC50 (HepG2): 4.93
pIC50 (CTLL-2): 5.57
pIC50 (NRK-52E): 4.45
pIC50 (RAW264.7): 4.85
pIC50 (THP-1): 5.36
